These results are taken from patent publication US20040180812A1, “Methods of treating and preventing proliferative disease” (Technology Center, priority 2002, published 2004).

Structures are written as SMILES. Read-outs that look alike come from different tables or passages of the source.

Assay [1] relates to U-87 glioblastoma cells. Kind of assay: In-vitro determination of proliferation (Coulter counter). Type of assay: cell-based, human. The protocol:
(§1) U-87 glioblastoma cells and A-549 non-small cell lung cancer cells (American Type Culture Collection) were maintained in alpha MEM (Sigma) with 10% fetal bovine serum (Atlanta Biologicals). Tumor cell lines were expanded as a monolayer culture by serial passage on tissue culture plates in tumor media (alpha MEM with 10% fetal bovine serum).
(§2) The cell doubling time was determined for both U-87 and A-549 tumor cells. A total of 1×10^6 Cells from resting culture were seeded in 50 mm flasks with medium and allowed to adhere for approximately Three hours. Clopidogrel and Aggrenox™ were then added in concentrations of 25, 50, or 100 μM. After further incubation for four hours, controls and treated dishes were trypsinized and counted in a Coulter Counter ZM. This count served as the starting count for proliferation and confirmed similar cell adhesion in each series. Cells were then counted every 24 hours for a total of 96 hours.

Assay [2] concerns U-87 glioblastoma cells. Description: Clonogenic assay. Type of assay: cell-based, human. The conditions noted are these: 25, 50, 100 μM, four hours exposure. The protocol: as §1
(§3) The effect of clopidogrel and Aggrenox™ on U-87 and A-549 survival was determined by preparing single cell suspensions from each cell culture. The cells were subjected to three concentrations of each drug (25, 50, or 100 μM) for four hours in medium. The suspensions were serially diluted with medium. The cells were then seeded in triplicate in 50 mm flasks. After 6 to 14 days of incubation, the cultures were stained with crystal violet and counted.

In assay [3] the test system is human U87 gliobastoma tumor xenografts. The protocol: Glioblastoma cell line U-87 (ATCC) was cultured in 150 cm^2 polystyrene flasks (Fisher cat. no. 355001) in Alpha MEM media (Cellgro® cat. no. 15-012-CV) supplemented with 10% FBS, 1× non essential amino acids (Cellgro® cat. no. 25-025-Cl), 0.1% glucose (Sigma® cat. no. G8644), 2 mM L-glutamine (Gibco BRL® cat. no. 25030-081) and 0.2% sodium bicarbonate (Cellgro® cat. no. 25-035-Cl) to sub-confluence (80%). Prior to cell dissociation, the culture was washed once with 1×PBS (Bio Whittaker® cat. no. 16-006Y) and dissociated with trypsin free Cellstripper™ (Cellgro® cat. no. 25-056-Cl). Suspended cells were counted using the model Z1 Coulter® particle counter.
Male mice (NCR-NU-M, Taconic®), 3-5 weeks old, were anesthetized with 0.2 mls Nembutal® (10 mg/ml in sterile water) subcutaneous in the back of the neck. Once anesthetized, each mouse was injected subcutaneous with 5×10^5 cells/0.2 ml in the right hind flank. Tumors were allowed to grow to 60 mm^3 prior to treatment. Tumor volume was calculated by the following formula from orthogonal measurements using Fisher Scientific® electronic digital calipers. [formula]
Tumors were allowed to grow to a final volume of 2000 mm^3 where upon the treatment was terminated and the mice were sacrificed using a CO2 gas chamber.
Treatment groups were evaluated for tumor growth delay. A 60 mg/kg/day solution of Plavix® (clopidogrel bisulfate) was prepared by crushing and dissolving 75 mg tablets in water (pH 1.0). The solute was filtered through a Nalgene® filtration unit (cat. no. 126-0020) and the pH raised to 1.78. Mice were gavaged daily with 0.2 ml solution of Plavix® and vehicle controls were gavaged daily with 0.2 ml acidified water pH 1.78.
Prior to X-ray irradiation, mice were anesthetized with […] Ketamine HCl (Ketaset III®, Fort Dodge®) and […] Acepromazine Maleate (Phoenix pharmaceutical, Inc.) by subcutaneous injection in the back to the neck. Tumors on the right hind leg were exposed to 7.5 Gy three times on alternate days for one week using a Pantek X-ray irradiator.

For assay [4], the system named is A-549 non-small cell lung cancer cells. Description: In-vitro determination of proliferation (Coulter counter). Type of assay: cell-based. The protocol:
as §1, §2

For assay [5] the test system is unchanged. Kind of assay: Clonogenic assay. Type of assay: cell-based. The conditions noted are these: 25, 50, 100 μM, four hours exposure. The protocol:
as §1, §3

The test system of another assay is U-87 tumor. The protocol:
In order to evaluate the effect of clopidogrel on U-87 tumor growth rate, U-87 cell suspension was injected subcutaneously into the right hind limb (5×10^5 cells in 50 μl PBS) of athymic NCR NUM mice (Taconic Farms). The clopidogrel was added to the drinking water in concentrations of 0.135 (low), 0.180 (intermediate) or 0.225 mg/ml (high). This was equivalent to an oral dose of approximately 15, 20, or 25 mg/kg/day. Mice were not pretreated prior to tumor implantation. The mice were randomized to five groups (control, low, intermediate and high concentration and non-solubilized drug) with five mice per group.
U-87 tumors were allowed to grow for approximately 10-14 days until reaching an approximate volume of 40-85 mm^3, before treatment. Tumor volume was determined daily by direct measurement with calipers and calculated by the formula [(smallest diameter^2×widest diameter)/2]. Daily weights were obtained.
Polynomial regression lines were fit to the data for each individual mouse for 20-24 days. Means were taken at two-day intervals for mice in each group.
U-87 cells were inoculated into the right hind limb of athymic NCR NUM mice. […] U-87 tumors were allowed to grow for approximately 10-14 days until reaching an approximate volume of 40-85 mm^3, before treatment. Clopidogrel was added to the drinking water in concentrations of 0.135 (low), 0.180 (intermediate) or 0.225 mg/ml (high). This was equivalent to an oral dose of approximately 15, 20, or 25 mg/kg/day. Tumor dimensions and animal weights were taken daily.

Where [6] appears, read: highest concentration 100 μM, counted every 24 h for 96 h.

As for `COC(=O)[C@H](c1ccccc1Cl)N1CCc2sccc2C1` [clopidogrel, clopidogrel bisulfate], the “proliferation of U-87 cells” value with U-87 glioblastoma cells [1] (setting [6]) is given as “considerably inhibited”. In the assay on U-87 glioblastoma cells [1] (lowest concentration (25 μM)), the “cell proliferation (U-87)” value is given as “did not significantly affect cell proliferation”. Also, the “U-87 clonogenic cell survival compared with Aggrenox results” value in the assay with U-87 glioblastoma cells [2] is “exaggerated”. In addition, the “Tumor growth Delay (Experiment 1)” value in assay [3] (Plavix alone) is 5 days. Besides, the “Tumor growth Delay (Experiment 2)” value came to 5 days in assay [3] (Plavix alone) and 16 days in assay [3] (Radiation plus Plavix). The “tumor growth delay (TGD)” value in assay [3] (Plavix alone, 60 mg/kg/day gavage) worked out at 5 days; in assay [3] (radiation (7.5 Gy three times) and Plavix 60 mg/kg/day combined) it was 16 days. For the same compound, the “TGD more than radiation alone” value in assay [3] (radiation and Plavix combined versus radiation alone) was 4 days. Moreover, in assay [4] (setting [6]), the A-549 cell proliferation result is “even more drastically inhibited”. Moreover, the “cell proliferation (A-549)” value in assay [4] (lowest concentration (25 μM)) is recorded as “did not significantly affect cell proliferation”. The “A-549 clonogenic cell survival compared with Aggrenox results” value in assay [5] was “exaggerated”. Further, the “dose response of tumor growth delay” value with U-87 tumor (0.135, 0.180, 0.225 mg/ml in drinking water) is recorded as “A dose response was noted”. Besides, the tumor growth delay result in the assay with U-87 tumor (highest concentration 0.225 mg/ml in drinking water, approx. 25 mg/kg/day oral) is reported as “much more dramatic”; in the assay on U-87 tumor (lowest concentration 0.135 mg/ml in drinking water, approx. 15 mg/kg/day oral) it was “small growth delay”.
